Experimental data: US20250361480A1, “REINFORCED ENGINEERED CELLULARIZED-TISSUE” (Ramot at Tel-Aviv University Ltd., priority 2023, published 2025)

Columns and labels:
[1] = ninhydrin absorbance normalized to control, FIG. 2F
Experimental: Aliquots of hydrogel (1 mL) were taken and either reacted with SOx or used as a control. Samples were lyophilized and then immersed in a 0.05% acetic acid solution (1 mL). To this was added 2% Ninhydrin in ethanol (w/v) (1 mL). The mixture was boiled for 90 minutes. Aliquots were taken and the absorbance of the solution was recorded at 570 nm (Infinite M200 Pro; Tecan, Switzerland).
To determine the ability of SOx to react with an ECM-based hydrogel, the concentration of amine groups present in the ECM before and after exposure to the Sox was assessed. […] Data are presented as mean±SD, n=4. All values were normalized to the average value of the control group. P-values were calculated using a one-tailed, unpaired, parametric t-test assuming that all samples have the same distribution.

[2] = Rheological testing, shear thinning of hydrogel; type: physicochemical, porcine; conditions: 37° C., FIG. 2D
Experimental: Rheological measurements were performed using a Discovery HR-3 Hybrid Rheometer (TA Instruments, DE) with a 20 mm diameter parallel plate geometry and a Peltier plate to maintain the sample temperature. Shear thinning experiments were performed by varying the strain rate while maintaining a fixed strain of 20%.
The mechanical properties of an exemplary native ECM-based hydrogel and of cross-linked hydrogels were assessed by rheological measurements. Shear thinning Measurements were conducted at 37° C. Data are presented as mean±SD, n=3. P-values were calculated using a Comparison of Fits test with an Extra Sum of Squares F-test.

[3] = test system: Primary human umbilical vein endothelial cells (HUVECs); assay: Cell viability of HUVECs in 2D culture with SOx (PrestoBlue); type: cell-based; conditions: SOx concentrations lower than 0.1% in the culturing medium, 48 hours, FIG. 2C
Experimental: Primary human umbilical vein endothelial cells (HUVECs) (Angio-Proteomie) were maintained in Endothelial Growth Medium (EGM-2) (Lonza) supplemented with an additional 1.5% (v/v) fetal bovine serum (FBS) (Biological Industries). Daily, PrestoBlue™ Cell Viability Reagent (Invitrogen) was added and cells were incubated for a fixed time interval. The medium was then transferred to a clean, opaque tissue culture well plate and fresh medium was added to the cells. The fluorescence was measured at 560/590 nm (Infinite M200 Pro).
Cells were incubated for 48 hours in 2D culture in order to allow toxic effects to become discernable. Data are presented in FIG. 2C as mean±standard deviation (SD), n=4.

[4] = Compressive (bulk) modulus of hydrogel; type: physicochemical, porcine; conditions: compression, FIG. 2E
Experimental: The compressive modulus measurements were performed using a Discovery HR-3 Hybrid Rheometer (TA Instruments, DE) with a 20 mm diameter parallel plate geometry and a Peltier plate to maintain the sample temperature. Bulk modulus tests were performed by compressing the samples at a fixed rate of 100 μm s^−1.
Alongside the rheological testing, the bulk mechanical properties of the hydrogel were also assessed. Samples were compressed, and the linear elastic modulus was calculated. Data are presented as mean±SD, n=3.

[5] = previous studies; cells added after crosslinking; cited from earlier work

With Oxidized sucrose [SOx] the “amines of the hydrogel that had reacted with the cross-linker” value [1] was 46%, the “gel viscosity, further change when increasing the SOx concentration” value ([2]; SOx raised from 0.03% to 0.07%) was “smaller increase” and the “gel viscosity versus control gel” value ([2]; hydrogel cross-linked with 0.03% SOx) was “large increase in gel viscosity”. The “impact on cell viability” value [3] was “no impact on cell viability”, the “hydrogel bulk modulus (linear elastic modulus) with and without exposure to SOx” value [4] was “significant reinforcement of the hydrogel” and the “toxicity when used to cross-link non-cellularized scaffolds” value [5] was “reduced toxicity profile”.
